Results published in patent US20240109877A1, “PYRIMIDINES FOR DEGRADING BRUTON'S TYROSINE KINASE” (AbbVie Inc., priority 2022, published 2024).

Tests used:
[1] = target: BTK protein in human whole blood (Homo sapiens (Human), UniProt Q06187); assay: Btk protein in human whole blood MSD ELISA based assay (Btk degradation); format: cell-based; details: human whole blood from healthy donors, 6 hours at 37° C., half maximal degradation concentration; read-out: hWB BTK DC50
Protocol: Btk protein degradation was tested using an Meso Scale Discovery-ELISA system (MSD-ELISA): (1) Test compounds were added to human whole blood; (2) human whole blood cells treated with test compounds were lysed; (3) lysed cells were treated with capture antibody, an antibody to Btk; (4) lysed cells were treated with […] to Btk; and (5) lysed cells were treated with anti-mouse antibody (tagged).
Specifically, about 80 μl of fresh human whole blood from healthy donors was transferred into each well of a 96-well V-bottom plate (Costar, Cat No.3894). Using a TECANTM D300e Digital Dispenser (Tecan)), 1:4 serially diluted compounds [(8 pt assay) in DMSO solution (final 0.2%) starting at 3 μM top concentration], were added in duplicate. Thereafter, plates were placed in a 37° C. incubator and incubated for 6 hours.
At the end of incubation, 80 μl of 2× CST lysis buffer (Cell Signaling Technology, Cat No. 9803), prepared from a 10× stock solution, was added per well to lyse the blood. Plates were then sealed with a plate sealer and the samples were frozen overnight at −80° C.
Total amount of BTK protein remaining in the blood samples after compound treatment was measured using MSD-ELISA. After thawing the frozen plates, blood lysates were mixed thoroughly and transferred to small spot high-bind MSD plates (Meso Scale Discovery, Cat No. L45XB-3) and coated with capturing antibody, rabbit anti-human BTK (D3H5) (Cell Signaling Technology, Cat No. 8547CF). Thereafter, primary detection antibody, mouse anti-human BTK monoclonal antibody, (BD Biosciences, Cat No. 611117) and secondary detection antibody, anti-mouse SULFO-TAG (Meso Scale Discovery, Cat No. R32AC-1) were added. The assay plates were read on an MSD S600 plate reader by the addition of 2× MSD read buffer (Meso Scale Discovery, R92TC-1). All reagent transfers, including blood lysis, was conducted using a Biomed i7 liquid handler. From the dose response curves, DC50 values were calculated by averaging data from duplicate experiments. and Curve fitting was done by non-linear regression using GraphPad Prism. The DC50 values are reported in Table 2 in the hWB BTK DC50 (nM) column The Dmax values represent the maximum amount of BTK degradation observed upon compound treatment compared to DMSO only treated samples. The dMax (%) values are reported in Table 2 in the hWB BTK dMax (%) column.

[2] = target: His-tagged Cereblon/DDB1 complex (Homo sapiens (Human), UniProt Q96SW2); assay: Cereblon Binding Assay (AlphaLISA Human Cereblon Binding Kit, competition); details: 10 μM top dose, biotin-labeled ligand competition; read-out: CRBN IC50
Protocol: Cereblon binding was measured in vitro using an AlphaLISA® Human Cereblon Binding Kit (PerkinElmer, Waltham, MA) according to the manufacturer's protocol (“Alpha” refers to Amplified Luminescent Proximity Homogeneous Assay). In this assay, donor beads and acceptor beads come into proximity through ligand binding to CRBN protein. Excitation of the donor beads provokes the release of singlet oxygen that triggers a cascade of energy transfer reactions to the acceptor beads, resulting in a sharp peak in light emission at 615 nm.
Specifically, nickel chelate acceptor beads (PerkinElmer AL108M) were used to capture a 6XHIS-tagged CRBN protein, and streptavidin-coated donor beads (PerkinElmer 6760002) were used to capture 50 nM biotinylated ligand. Each well included the following: sample or control; HIS-tagged CRBN protein; biotinylated ligand; nickel chelate acceptor beads; and streptavidin donor beads.
Competition Assay: Test compounds in 100% dimethyl sulfoxide were plated onto white, low volume 384 well plates (PerkinElmer Proxiplate 384 plus # 6008289) using an Labcyte Echo acoustic dispenser, in an 11-point dose curve and 3-fold dilution scheme. […] Plates were incubated for 30 minutes at room temperature.
Detection: 10 μL detection reagents were added in low light conditions containing nickel chelate acceptor beads and streptavidin donor beads (Perkin Elmer 6760002), resulting in a final concentration 20 ng/ml. Plates were incubated 1 hour and read on a PerkinElmerTM Envision™ plate reader (680 nm excitation and […] settings). The IC50 of each compound was determined by calculating percent inhibition from no drug and no protein controls, and the Ki of each compound was calculated using the Cheng-Prusoff transformation. From the IC50 values were determined. The IC50 values are reported in Table 2 in the CRBN IC50 (nM) column.

[3] = target: Human BTK enzyme, wild-type (Homo sapiens (Human), UniProt Q06187); assay: BTK Screening: Btk kinase activity, electrophoretic mobility shift assay (MSA); format: biochemical; details: 0.5 nM BTK enzyme, 50 μM ATP, 15 minutes pre-incubation, 3 hours at 25° C.
Protocol: Btk kinase activity was measured in vitro using an electrophoretic mobility shift assay (MSA). The ability of Btk to phosphorylate a fluorescent peptide substrate (FAM-GEEPLYWSFPAKKK-NH2) was measured. The kinase reactions were assembled in a total volume of 25 μL per well in 384 well plates. The following was added to each well: compound buffer (or control); enzyme buffer; and substrate buffer, as further described below.
Specifically the following was added: (1) compound buffer or control: 5μL of 5× compound buffer [(5× compound buffer comprised of: 1× Master Buffer, X μM test compound in 5% dimethyl sulfoxide; (2× Master Buffer comprised of 200 mM HEPES, pH7.5, 0.2% BSA, and 0.02% Triton X-100)]; and (2) enzyme buffer: 10 μL of 2.5× enzyme buffer (1× Master Buffer, 12.5 mM MgCl2, 2.5 mM DTT, 25 μM sodium orthovanadate, 25 μM beta-glycerophosphate, and 1.25 nM BTK enzyme). Human BTK enzyme Nanosyn-293HEK, wild-type, available from Nanosyn, Santa Clara, CA). Enzyme and compound were pre-incubated for 15 minutes. Additionally, the following was added: (3) substrate buffer: 10 μL of 2.5× substrate buffer (1× Master Buffer, […], and 2.5 μM of the peptide substrate FAM). Each plate was incubated at 25° C. for 3 hours. The reaction was terminated by adding to each well: 45 μL of 1.55× stop buffer (1× Master Buffer and 31 mM EDTA). The final reaction mixture was as follows: 100 mM HEPES, pH7.5; 0.1% BSA; 0.01% Triton X-100; 1 mM DTT; 5 mM MgCl2; 10 μM sodium orthovanadate; 10 μM beta-glycerophosphate; 50 μM ATP; 1% dimethyl sulfoxide (from compound); 1μM fluorescent peptide substrate and 0.5 nM BTK- enzyme. The terminated reactions were analyzed using a 12 channel LABCHIP® 3000 microfluidic detection instrument (available from Caliper Life Sciences, Waltham, MA). […] As substrate and product peptides were separated, two peaks of fluorescence were observed. Change in the relative fluorescence intensity of the substrate and product peaks was the parameter measured, reflecting enzyme activity. In the presence of an active compound, the ratio between product and substrate was altered. The signal of the product decreased, while the signal of the substrate increased. Capillary electrophoregrams (RDA acquisition files) were analyzed using HTS Well Analyzer software (available from Caliper Life Sciences, Waltham, MA).
Activity in each sample was determined as the product to sum ratio (PSR): P/(S+P), where P was the peak height of the product peptide and S was the peak height of the substrate peptide. For each compound, enzyme activity was measured at various concentrations (12 concentrations of compound spaced by 3× dilution intervals). Negative control samples (0% inhibition in the absence of an active compound) and positive control samples (100% inhibition, in the presence of 20 mM EDTA) were assembled in replicates of four and were used to calculate % inhibition values for each active compound at each concentration. Percent inhibition (Pinh) was determined using following equation: Pinh=(PSR0%−PSRinh)/(PSR0%−PSR100%)*100, where PSRinh was the product sum ratio in the presence of inhibitor, PSR0% was the average product sum ratio in the absence of active compound and PSR100% was the average product sum ratio in 100%-inhibition control samples.
The IC50 values of active compounds were determined by 4 parameter sigmoidal dose response model fitting of the inhibition curves (Pinh versus inhibitor concentration) using XLfit® 4 software (IDBS, Boston, MA). The IC50 values are reported in Table 2 in the BTK IC50 (nM) column.

| SMILES | DC50 [1] | IC50 [2] | IC50 [3] |
| --- | --- | --- | --- |
| COC[C@H]1CN(CCc2ccc(N3CCC(=O)NC3=O)cc2)CCN1c1ccc(Nc2cc(-c3ccc([C@@H](C)NC(=O)c4nc(C(C)(C)C)no4)c(C)c3)ncn2)nc1 [Example 15, 3-tert-butyl-N-[(1R)-1-{4-[6-({5-[(2R)-4-{2-[4-(2,4-dioxo-1,3-diazinan-1-yl)phenyl]ethyl}-2-(methoxymethyl)piperazin-1-yl]pyridin-2-yl}amino)pyrimidin-4-yl]-2-methylphenyl}ethyl]-1,2,4-oxadiazole-5-carboxamide] | 4.21 nM | ≥ 10 µM | 0.0986 nM |
| C[C@@H](NC(=O)c1nc(C(C)(C)C)no1)c1ccc(-c2cc(Nc3ccc(N4CCN(CCc5ccc(N6CCC(=O)NC6=O)cc5)C[C@@H]4C)cn3)ncn2)cc1C(F)(F)F [Example 16, 3-tert-butyl-N-[(1R)-1-{4-[6-({5-[(2S)-4-{2-[4-(2,4-dioxo-1,3-diazinan-1-yl)phenyl]ethyl}-2-methylpiperazin-1-yl]pyridin-2-yl}amino)pyrimidin-4-yl]-2-(trifluoromethyl)phenyl}ethyl]-1,2,4-oxadiazole-5-carboxamide] | 14.2 nM | ≥ 10 µM | 0.438 nM |
| C[C@@H](NC(=O)c1nc(C(C)(C)C)no1)c1ccc(-c2cc(Nc3ccc(N4CCN(CCc5ccc(N6CCC(=O)NC6=O)cc5)C[C@@H]4C)cn3)ncn2)cc1F [Example 17, 3-tert-butyl-N-[(1R)-1-{4-[6-({5-[(2S)-4-{2-[4-(2,4-dioxo-1,3-diazinan-1-yl)phenyl]ethyl}-2-methylpiperazin-1-yl]pyridin-2-yl}amino)pyrimidin-4-yl]-2-fluorophenyl}ethyl]-1,2,4-oxadiazole-5-carboxamide] | 4.13 nM | 3.87 µM | 0.103 nM |
